Reference: patent US20260285850A1, “SUBSTITUTED OXAZOLIDINONES AND IMIDAZOLINONES AS HERBICIDES” (FMC CORPORATION, priority 2023, published 2026)

Key:
Format in all cases: in vivo
[1] = system: green foxtail (Setaria viridis); experiment: Test A postemergence application, visual injury rating 0-100; conditions: 10 days
In short: (§1)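 Compound in a non-phytotoxic, surfactant-containing solvent is applied either as a directed soil spray before seedlings emerge or onto emerged plants 2-10 cm tall; pots hold a loam-sand blend. Plants grow 10 days under greenhouse conditions and are rated by eye against untreated controls (0 no effect, 100 complete control).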

[2] = system: horseweed (Erigeron canadensis); experiment: as above; conditions: 10 days
In short: as §1

[3] = system: barnyardgrass (Echinochloa crus-galli); experiment: as above; conditions: 10 days
In short: as §1

[4] = system: blackgrass (Alopecurus myosuroides); experiment: as above; conditions: 10 days
In short: as §1

corn (Zea mays) [5] = experiment: as above; conditions: 10 days
In short: as §1

kochia (Bassia scoparia) [6] = experiment: as above; conditions: 10 days
In short: as §1

soybean (Glycine max) [7] = experiment: as above; conditions: 10 days
In short: as §1

[8] = system: wheat (Triticum aestivum); experiment: as above; conditions: 10 days
In short: as §1

[9] = system: oat, wild (wild oat, Avena fatua); experiment: as above; conditions: 10 days
In short: as §1

[10] = system: ragweed (common ragweed, Ambrosia artemisiifolia); experiment: as above; conditions: 10 days
In short: as §1

[11] = system: ryegrass, Italian (italian ryegrass, Lolium multiflorum); experiment: as above; conditions: 10 days
In short: as §1

[12] = system: palmer (palmer amaranth, palmer pigweed, Amaranthus palmeri); experiment: as above; conditions: 10 days
In short: as §1

[13] = system: galium (catchweed bedstraw, Galium aparine); experiment: as above; conditions: 10 days
In short: as §1

[14] = system: green foxtail (Setaria viridis); experiment: Test A preemergence soil spray, visual injury rating 0-100; conditions: 10 days, 0 = no effect, 100 = complete control
In short: as §1

[15] = system: barnyardgrass (Echinochloa crus-galli); experiment: as above; conditions: 10 days, 0 = no effect, 100 = complete control
In short: as §1

[16] = system: blackgrass (Alopecurus myosuroides); experiment: as above; conditions: 10 days, 0 = no effect, 100 = complete control
In short: as §1

corn (Zea mays) [17] = experiment: as above; conditions: 10 days, 0 = no effect, 100 = complete control
In short: as §1

kochia (Bassia scoparia) [18] = experiment: as above; conditions: 10 days, 0 = no effect, 100 = complete control
In short: as §1

soybean (Glycine max) [19] = experiment: as above; conditions: 10 days, 0 = no effect, 100 = complete control
In short: as §1

[20] = system: wheat (Triticum aestivum); experiment: as above; conditions: 10 days, 0 = no effect, 100 = complete control
In short: as §1

[21] = system: oat, wild (wild oat, Avena fatua); experiment: as above; conditions: 10 days, 0 = no effect, 100 = complete control
In short: as §1

[22] = system: ragweed (common ragweed, Ambrosia artemisiifolia); experiment: as above; conditions: 10 days, 0 = no effect, 100 = complete control
In short: as §1

[23] = system: ryegrass, Italian (italian ryegrass, Lolium multiflorum); experiment: as above; conditions: 10 days, 0 = no effect, 100 = complete control
In short: as §1

[24] = system: palmer (palmer amaranth, palmer pigweed, Amaranthus palmeri); experiment: as above; conditions: 10 days, 0 = no effect, 100 = complete control
In short: as §1

rice (Oryza sativa) = experiment: Test B flooded paddy test, visual plant response rating 0-100; conditions: 250 g ai/ha, Flood, applied to paddy water, evaluated after 13 days
In short: (§2)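 Compounds applied to standing paddy water (3 cm above soil, maintained for the test duration) on 2-leaf-stage plants; visual rating vs controls at 13 days, greenhouse.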

[25] = system: ducksalad (Heteranthera limosa); experiment: as above; conditions: 250 g ai/ha, Flood, applied to paddy water, evaluated after 13 days
In short: as §2

[26] = system: barnyardgrass (Echinochloa crusgalli); experiment: as above; conditions: 250 g ai/ha, Flood, applied to paddy water, evaluated after 13 days
In short: as §2

[27] = system: sedge, umbrella (small-flower umbrella sedge, Cyperus difformis); experiment: as above; conditions: 250 g ai/ha, Flood, applied to paddy water, evaluated after 13 days
In short: as §2

[28] = 31 g ai/ha, postemergence, 0 = no effect, 100 = complete control
[29] = Postemergence, 125 g ai/ha, 0 is no effect, 100 is complete control

SMILES: CC1(C(=O)NC2C=CC(C(=O)OC3CCCC3)C2)CN(c2cc(F)cc(F)c2)C(=O)O1 (stereo not shown) [Compound 57]
- Foxtail, Green plant response rating (0-100) [1, 28]: 30
- Foxtail, Green plant response rating (0 to 100 scale) [1, 29]: 90
- Horseweed plant response rating (0-100) [2, 28]: 0
- Horseweed plant response rating (0 to 100 scale) [2, 29]: 60
- Barnyardgrass plant response rating (0-100) [3, 28]: 100
- Barnyardgrass plant response rating (0 to 100 scale) [3, 29]: 100
- Blackgrass plant response rating (0-100) [4, 28]: 90
- Blackgrass plant response rating (0 to 100 scale) [4, 29]: 90
- Corn plant response rating (0-100) (corn (Zea mays) [5]; [28]): 90
- Corn plant response rating (0 to 100 scale) (corn (Zea mays) [5]; [29]): 100
- Kochia plant response rating (0-100) (kochia (Bassia scoparia) [6]; [28]): 80
- Kochia plant response rating (0 to 100 scale) (kochia (Bassia scoparia) [6]; [29]): 80
- Soybean plant response rating (0-100) (soybean (Glycine max) [7]; [28]): 60
- Soybean plant response rating (0 to 100 scale) (soybean (Glycine max) [7]; [29]): 70
- Wheat plant response rating (0-100) [8, 28]: 90
- Wheat plant response rating (0 to 100 scale) [8, 29]: 90
- Oat, Wild plant response rating (0-100) [9, 28]: 90
- Oat, Wild plant response rating (0 to 100 scale) [9, 29]: 90
- Ragweed plant response rating (0-100) [10, 28]: 40
- Ragweed plant response rating (0 to 100 scale) [10, 29]: 60
- Ryegrass, Italian plant response rating (0-100) [11, 28]: 90
- Ryegrass, Italian plant response rating (0 to 100 scale) [11, 29]: 90
- Amaranth, Palmer plant response rating (0-100) [12, 28]: 20
- Amaranth, Palmer / Pigweed, Palmer plant response rating (0 to 100 scale) [12, 29]: 70
- Galium plant response rating (0-100) [13, 28]: 80
- Galium plant response rating (0 to 100 scale) [13, 29]: 80
- Foxtail, Green plant response rating (0-100) ([14]; 31 g ai/ha): 0
- Foxtail, Green plant response rating (0 to 100 scale) ([14]; 125 g ai/ha): 50
- Barnyardgrass plant response rating (0-100) ([15]; 31 g ai/ha): 50
- Barnyardgrass plant response rating (0 to 100 scale) ([15]; 125 g ai/ha): 100
- Blackgrass plant response rating (0-100) ([16]; 31 g ai/ha): 70
- Blackgrass plant response rating (0 to 100 scale) ([16]; 125 g ai/ha): 90
- Corn plant response rating (0-100) (corn (Zea mays) [17]; 31 g ai/ha): 10
- Corn plant response rating (0 to 100 scale) (corn (Zea mays) [17]; 125 g ai/ha): 90
- Kochia plant response rating (0-100) (kochia (Bassia scoparia) [18]; 31 g ai/ha): 0
- Kochia plant response rating (0 to 100 scale) (kochia (Bassia scoparia) [18]; 125 g ai/ha): 90
- Soybean plant response rating (0-100) (soybean (Glycine max) [19]; 31 g ai/ha): 50
- Soybean plant response rating (0 to 100 scale) (soybean (Glycine max) [19]; 125 g ai/ha): 80
- Wheat plant response rating (0-100) ([20]; 31 g ai/ha): 90
- Wheat plant response rating (0 to 100 scale) ([20]; 125 g ai/ha): 100
- Oat, Wild plant response rating (0-100) ([21]; 31 g ai/ha): 90
- Oat, Wild plant response rating (0 to 100 scale) ([21]; 125 g ai/ha): 90
- Ragweed plant response rating (0-100) ([22]; 31 g ai/ha): 0
- Ragweed plant response rating (0 to 100 scale) ([22]; 125 g ai/ha): 0
- Ryegrass, Italian plant response rating (0-100) ([23]; 31 g ai/ha): 50
- Ryegrass, Italian plant response rating (0 to 100 scale) ([23]; 125 g ai/ha): 100
- Amaranth, Palmer plant response rating (0-100) ([24]; 31 g ai/ha): 10
- Amaranth, Palmer plant response rating (0 to 100 scale) ([24]; 125 g ai/ha): 70
- Plant response rating, Rice (0 to 100 scale, 0 is no effect and 100 is complete control) (rice (Oryza sativa)): 20
- Plant response rating, Ducksalad (0 to 100 scale, 0 is no effect and 100 is complete control) [25]: 100
- Plant response rating, Barnyardgrass (0 to 100 scale, 0 is no effect and 100 is complete control) [26]: 90
- Plant response rating, Sedge, Umbrella (0 to 100 scale, 0 is no effect and 100 is complete control) [27]: 55
